Data published in ChEMBL document CHEMBL4680353, “Synthesis, anticancer activity and molecular docking studies of N-deacetylthiocolchicine and 4-iodo-N-deacetylthiocolchicine derivatives” (Bioorg Med Chem, 2021).
Calls of active or inactive are those of the source. The rule behind the calls is not given here.

Columns and labels:
A549 = experiment: Antiproliferative activity against human A549 cells incubated for 72 hrs by SRB assay; type: functional, cell-based; conditions: A549, 72 h
cells = type: functional, cell-based; conditions: Homo sapiens, LoVo/DX, 72 h
ALL5 [1] = experiment: Induction of apoptosis in human ALL-5 cells assessed as increase in PARP cleavage at 0.2 uM incubated for 24 hrs by Western blot analysis relative to control
ALL5 [2] = experiment: Cell cycle arrest in human ALL-5 cells assessed as accumulation at sub-G1 phase after 24 hrs at 5 times of IC50 by propidium iodide staining-based flow cytometric analysis relative to control; type: functional
[3] = Resistance index, ratio of IC50 for antiproliferative activity against human Lovo/DX cells to IC50 for antiproliferative activity against human LoVo cells; type: functional
[4] = Antiproliferative activity against human ALL5 cells incubated for 120 hrs followed by MTT addition further incubated for 48 hrs; type: functional, cell-based
LoVo = experiment: Antiproliferative activity against human LoVo cells incubated for 72 hrs by SRB assay; type: functional, cell-based
BALB/3T3 = experiment: Antiproliferative activity against mouse BALB/3T3 cells incubated for 72 hrs by SRB assay; type: ADME, cell-based; conditions: BALB/3T3, 72 h
MCF7 = experiment: Antiproliferative activity against human MCF-7 cells incubated for 72 hrs by SRB assay; conditions: MCF7, 72 h
ALL5 [5] = experiment: Induction of apoptosis in human ALL-5 cells assessed as increase in PARP cleavage at 43 nM incubated for 48 hrs by Western blot analysis relative to control; type: functional, cell-based
ALL5 [6] = experiment: Induction of apoptosis in human ALL-5 cells assessed as increase in PARP cleavage at 23 nM incubated for 48 hrs by Western blot analysis relative to control; type: functional, cell-based
ALL5 [7] = experiment: Induction of apoptosis in human ALL-5 cells assessed as increase in PARP cleavage at 45 nM incubated for 48 hrs by Western blot analysis relative to control; type: functional, cell-based

| SMILES | IC50 (A549) [nM] | IC50 (cells) [nM] | Activity (ALL5 [1]) | Activity (ALL5 [2]) | Ratio IC50 [3] | IC50 [4] [nM] | IC50 (LoVo) [nM] | IC50 (BALB/3T3) [nM] | IC50 (MCF7) [nM] | Activity (ALL5 [5]) | Activity (ALL5 [6]) | Activity (ALL5 [7]) |
| --- | --- | --- | --- | --- | --- | --- | --- | --- | --- | --- | --- | --- |
| COc1cccc2c1C(=O)c1c(O)c3c(c(O)c1C2=O)C[C@@](O)(C(=O)CO)C[C@@H]3O[C@H]1C[C@H](N)[C@H](O)[C@H](C)O1 [DOXORUBICIN] | 258 | 4750 | Active |  |  |  |  |  |  |  |  |  |
| COc1c(I)c2c(c(OC)c1OC)-c1ccc(SC)c(=O)cc1[C@@H](NC(C)=O)CC2 |  |  |  | Active | 91.7 | 8.7 | 7.4 |  |  |  |  |  |
| CCN(CC)C(=O)N[C@H]1CCc2cc(OC)c(OC)c(OC)c2-c2ccc(SC)c(=O)cc21 | 133 | 1100 |  |  | 16 | 17.4 | 69.1 | 88.2 | 113 |  |  |  |
| COc1c(I)c2c(c(OC)c1OC)-c1ccc(SC)c(=O)cc1[C@@H](NC(=O)C(C)C)CC2 | 62.6 | 91.3 |  |  | 13 | 19.9 | 7 | 69.7 | 44.5 |  |  |  |
| COc1cc2c(c(OC)c1OC)-c1ccc(SC)c(=O)cc1[C@@H](NC(=O)c1ccccc1)CC2 | 11.2 | 57.9 |  |  | 10.4 | 5.7 | 5.6 | 21.6 | 11.2 |  |  |  |
| COc1cc2c(c(OC)c1OC)-c1ccc(SC)c(=O)cc1[C@@H](NC(=O)C(C)C)CC2 | 15.8 | 174 |  | Active | 19.3 | 5.5 | 9 | 69.9 | 13.5 |  |  |  |
| COc1cc2c(c(OC)c1OC)-c1ccc(OC)c(=O)cc1[C@@H](NC(C)=O)CC2 [COLCHICINE] |  |  |  |  |  | 8.6 |  | 106 |  | Active |  |  |
| CCN(CC)C(=O)N[C@H]1CCc2c(I)c(OC)c(OC)c(OC)c2-c2ccc(SC)c(=O)cc21 | 81.3 | 794 |  |  | 12.3 | 81.9 | 64.6 | 107 | 94.7 |  |  |  |
| COc1cc2c(c(OC)c1OC)-c1ccc(SC)c(=O)cc1[C@@H](NC(=O)CCCCl)CC2 | 13.3 | 102 |  | Active | 12.2 | 5.9 | 8.4 | 20.2 | 11.9 |  |  |  |
| COCC(=O)N[C@H]1CCc2cc(OC)c(OC)c(OC)c2-c2ccc(SC)c(=O)cc21 | 13.5 | 132 |  |  | 16 | 8.5 | 8.2 | 12 | 12.7 |  |  |  |
| COc1c(I)c2c(c(OC)c1OC)-c1ccc(SC)c(=O)cc1[C@@H](NC(=O)c1ccccc1)CC2 | 13.3 | 72.9 |  |  | 10.2 | 25.4 | 7.2 | 76.2 | 47.5 |  |  |  |
| CCCCCCCCCC(=O)N[C@H]1CCc2c(I)c(OC)c(OC)c(OC)c2-c2ccc(SC)c(=O)cc21 | 833 | 3870 |  |  | 6.8 | 615 | 568 | 305 | 846 |  |  |  |
| COCC(=O)N[C@H]1CCc2c(I)c(OC)c(OC)c(OC)c2-c2ccc(SC)c(=O)cc21 | 10.5 | 92.2 |  |  | 13.2 | 15 | 7 | 51.2 | 10.5 |  |  |  |
| COc1c(I)c2c(c(OC)c1OC)-c1ccc(SC)c(=O)cc1[C@@H](NC(=O)CCCCl)CC2 | 82.8 | 529 |  |  | 13.5 | 47.5 | 39.2 | 87.8 | 89.4 |  |  |  |
| COc1c(I)c2c(c(OC)c1OC)-c1ccc(SC)c(=O)cc1[C@@H](N)CC2 | 866 | 844 |  |  | 6.7 | 135 | 126 | 1420 | 1700 |  |  |  |
| CCC(=O)N[C@H]1CCc2cc(OC)c(OC)c(OC)c2-c2ccc(SC)c(=O)cc21 | 13.2 | 163 |  |  | 19.1 | 4.6 | 8.5 | 17.9 | 12.4 |  | Active |  |
| CCC(=O)N[C@H]1CCc2c(I)c(OC)c(OC)c(OC)c2-c2ccc(SC)c(=O)cc21 | 11.4 | 168 |  |  | 23.3 | 9 | 7.2 | 39.6 | 10.8 |  |  | Active |
| COc1c(I)c2c(c(OC)c1OC)-c1ccc(OC)c(=O)cc1[C@@H](NC(C)=O)CC2 | 93.9 | 2780 |  |  | 278 | 15.5 | 10.2 | 135 | 97.7 |  |  |  |
| CCCCCCCCCC(=O)N[C@H]1CCc2cc(OC)c(OC)c(OC)c2-c2ccc(SC)c(=O)cc21 | 13.3 | 84.6 |  |  | 11.2 | 27.3 | 7.6 | 87.2 | 66.3 |  |  |  |
